Measured values published in ChEMBL document CHEMBL3612048, “Cytotoxic triterpenoid glycosides (saikosaponins) from the roots of Bupleurum chinense” (Bioorg Med Chem Lett, 2015).

Legend:
A549 = experiment: Cytotoxicity against human A549 cells assessed as induction of cell death incubated for 2 days by MTT assay; format: functional, cell-based; conditions: A549, 48 h
HepG2 = experiment: Cytotoxicity against human HepG2 cells assessed as induction of cell death incubated for 2 days by MTT assay; format: functional, cell-based; conditions: HepG2, 48 h
[1] = Cytotoxicity against human Hep3B cells assessed as induction of cell death incubated for 2 days by MTT assay; format: functional, cell-based, Hep 3B2; conditions: 48 h
Bcap37 = experiment: Cytotoxicity against human Bcap37 cells assessed as induction of cell death incubated for 2 days by MTT assay; format: functional, cell-based; conditions: Bcap37, 48 h
MCF7 = experiment: Cytotoxicity against human MCF7 cells assessed as induction of cell death incubated for 2 days by MTT assay; format: functional, cell-based; conditions: MCF7, 48 h

| Structure (SMILES) | IC50 (A549) | IC50 (HepG2) | IC50 [1] | IC50 (Bcap37) | IC50 (MCF7) |
| --- | --- | --- | --- | --- | --- |
| C[C@H]1O[C@@H](O[C@H]2CC[C@@]3(C)[C@@H](CC[C@]4(C)[C@@H]3C=C[C@]35OC[C@@]6(CCC(C)(C)C[C@H]63)[C@@H](O)C[C@]54C)[C@]2(C)CO)[C@H](O)[C@@H](O)[C@H]1O | > 50 µM | 13.3 µM | 19.8 µM | 17.3 µM | 43.3 µM |
| CO[C@@H]1C=C2[C@@H]3CC(C)(C)CC[C@]3(CO)[C@@H](O)C[C@@]2(C)[C@]2(C)CC[C@H]3[C@](C)(CO)[C@@H](O[C@@H]4O[C@H](C)[C@H](O)[C@H](O)[C@H]4O)CC[C@]3(C)[C@@H]12 | > 50 µM | 30.2 µM | > 50 µM | > 50 µM | > 50 µM |
| CO[C@@H]1C=C2[C@@H]3CC(C)(C)CC[C@]3(CO)[C@@H](O)C[C@@]2(C)[C@]2(C)CC[C@H]3C(C)(C)[C@@H](O[C@@H]4O[C@H](C)[C@H](O)[C@H](O)[C@H]4O)CC[C@]3(C)[C@@H]12 | > 50 µM | > 50 µM | > 50 µM | > 50 µM | > 50 µM |
| CC(=O)OC[C@@]1(C)[C@@H]2CC[C@]3(C)[C@H](C=C[C@]45OC[C@@]6(CCC(C)(C)C[C@H]64)[C@@H](O)C[C@]53C)[C@@]2(C)CC[C@@H]1O[C@@H]1O[C@H](C)[C@H](O)[C@H](O)[C@H]1O | 34.1 µM | 9.76 µM | 24.8 µM | 26 µM | 33.5 µM |
| C[C@H]1O[C@@H](O[C@H]2CC[C@@]3(C)[C@@H](CC[C@]4(C)[C@@H]3C=CC3=C5CC(C)(C)CC[C@]5(CO)C(=O)C[C@]34C)[C@]2(C)CO)[C@H](O)[C@@H](O[C@@H]2O[C@H](CO)[C@@H](O)[C@H](O)[C@H]2O)[C@H]1O | > 50 µM | 40.2 µM | > 50 µM | > 50 µM | > 50 µM |
| CO[C@@H]1C=C2C3CC(C)(C)CC[C@]3(CO)[C@H](O)C[C@@]2(C)[C@]2(C)CC[C@H]3[C@](C)(CO)[C@@H](O[C@@H]4O[C@H](C)[C@H](O)[C@H](O[C@@H]5O[C@H](CO)[C@@H](O)[C@H](O)[C@H]5O)[C@H]4O)CC[C@]3(C)[C@@H]12 (stereo partly specified) | > 50 µM | > 50 µM | > 50 µM | > 50 µM | > 50 µM |
| C[C@H]1O[C@@H](O[C@H]2CC[C@@]3(C)[C@@H](CC[C@]4(C)[C@@H]3C=C[C@]35OC[C@@]6(CCC(C)(C)C[C@H]63)[C@H](O)C[C@]54C)[C@]2(C)CO)[C@H](O)[C@@H](O)[C@H]1O | > 50 µM | 9.34 µM | 20.4 µM | 32 µM | 49 µM |
| C[C@H]1O[C@@H](O[C@H]2CC[C@@]3(C)[C@@H](CC[C@]4(C)[C@@H]3C=C[C@]35OC[C@@]6(CCC(C)(C)C[C@H]63)[C@H](O)C[C@]54C)[C@]2(C)CO)[C@H](O)[C@@H](O[C@@H]2O[C@H](CO)[C@@H](O)[C@H](O)[C@H]2O)[C@H]1O | 30.8 µM | 4.88 µM | 9.61 µM | 10.7 µM | 7.68 µM |
| C[C@H]1O[C@@H](O[C@H]2CC[C@]3(C)[C@H]4C=C[C@]56OC[C@@]7(CCC(C)(C)C[C@H]75)[C@@H](O)C[C@@]6(C)[C@]4(C)CC[C@H]3C2(C)C)[C@H](O)[C@@H](O[C@@H]2O[C@H](CO)[C@@H](O)[C@H](O)[C@H]2O)[C@H]1O | > 50 µM | 20.5 µM | 16.7 µM | 15.4 µM | 21.3 µM |
| CC(=O)O[C@H]1[C@H](O[C@H]2[C@@H](O)[C@@H](C)O[C@@H](O[C@H]3CC[C@@]4(C)[C@@H](CC[C@]5(C)[C@@H]4C=C[C@]46OC[C@@]7(CCC(C)(C)C[C@H]74)[C@@H](O)C[C@]65C)[C@]3(C)CO)[C@@H]2O)O[C@H](CO)[C@@H](O)[C@@H]1O | 38.9 µM | 20.1 µM | 5.74 µM | 17.7 µM | 30.1 µM |
| CC(=O)O[C@@H]1[C@@H](O)[C@H](O[C@H]2[C@@H](O)[C@@H](C)O[C@@H](O[C@H]3CC[C@@]4(C)[C@@H](CC[C@]5(C)[C@@H]4C=C[C@]46OC[C@@]7(CCC(C)(C)C[C@H]74)[C@@H](O)C[C@]65C)[C@]3(C)CO)[C@@H]2O)O[C@H](CO)[C@H]1O | 38.2 µM | 12.9 µM | 13.7 µM | 26.6 µM | 22.2 µM |
| CC(=O)OC[C@H]1O[C@@H](O[C@H]2[C@@H](O)[C@@H](C)O[C@@H](O[C@H]3CC[C@@]4(C)[C@@H](CC[C@]5(C)[C@@H]4C=C[C@]46OC[C@@]7(CCC(C)(C)C[C@H]74)[C@@H](O)C[C@]65C)[C@]3(C)CO)[C@@H]2O)[C@H](O)[C@@H](O)[C@@H]1O | 35.3 µM | 20.8 µM | 16.9 µM | 34.1 µM | 36.2 µM |
| CC(=O)OC[C@@]1(C)[C@@H]2CC[C@]3(C)[C@H](C=C[C@]45OC[C@@]6(CCC(C)(C)C[C@H]64)[C@@H](O)C[C@]53C)[C@@]2(C)CC[C@@H]1O[C@@H]1O[C@H](C)[C@H](O)[C@H](O[C@@H]2O[C@H](CO)[C@@H](O)[C@H](O)[C@H]2O)[C@H]1O | > 50 µM | > 50 µM | > 50 µM | > 50 µM | > 50 µM |
| C[C@@H]1O[C@@H](O[C@H]2[C@H](O)[C@@H](O)[C@H](O[C@H]3CC[C@]4(C)[C@H]5C=C[C@]67OC[C@@]8(CCC(C)(C)C[C@H]86)[C@@H](O)C[C@@]7(C)[C@]5(C)CC[C@H]4C3(C)C)O[C@@H]2CO[C@@H]2O[C@H](CO)[C@@H](O)[C@H](O)[C@H]2O)[C@H](O)[C@H](O)[C@H]1O | > 50 µM | > 50 µM | > 50 µM | > 50 µM | > 50 µM |
| CC(=O)OC[C@H]1O[C@@H](O[C@H]2[C@@H](O)[C@@H](C)O[C@@H](O[C@H]3CC[C@@]4(C)[C@@H](CC[C@]5(C)[C@@H]4C=C[C@]46OC[C@@]7(CCC(C)(C)C[C@H]74)[C@H](O)C[C@]65C)[C@]3(C)CO)[C@@H]2O)[C@H](O)[C@@H](O)[C@@H]1O | 15.3 µM | 8.29 µM | 7.59 µM | 17.7 µM | 9.98 µM |
| C[C@H]1O[C@@H](O[C@H]2CC[C@@]3(C)[C@@H](CC[C@]4(C)[C@@H]3C=CC3=C5CC(C)(C)CC[C@]5(CO)[C@H](O)C[C@]34C)[C@]2(C)CO)[C@H](O)[C@@H](O)[C@H]1O | > 50 µM | 18.9 µM | 16.5 µM | 38.4 µM | 29.6 µM |
| C[C@H]1O[C@@H](O[C@H]2CC[C@@]3(C)[C@@H](CC[C@]4(C)[C@@H]3C=CC3=C5CC(C)(C)CC[C@]5(CO)[C@@H](O)C[C@]34C)[C@]2(C)CO)[C@H](O)[C@@H](O)[C@H]1O | > 50 µM | 26.2 µM | 19.8 µM | 43.2 µM | 42.1 µM |
| C[C@H]1O[C@@H](O[C@H]2CC[C@@]3(C)[C@@H](CC[C@]4(C)[C@@H]3C=CC3=C5CC(C)(C)CC[C@]5(CO)[C@@H](O)C[C@]34C)[C@]2(C)CO)[C@H](O)[C@@H](O[C@@H]2O[C@H](CO)[C@@H](O)[C@H](O)[C@H]2O)[C@H]1O | > 50 µM | > 50 µM | > 50 µM | > 50 µM | > 50 µM |
| C[C@H]1O[C@@H](O[C@H]2CC[C@@]3(C)[C@@H](CC[C@]4(C)[C@@H]3C=C[C@]35OC[C@@]6(CCC(C)(C)C[C@H]63)C(=O)C[C@]54C)[C@]2(C)CO)[C@H](O)[C@@H](O[C@@H]2O[C@H](CO)[C@@H](O)[C@H](O)[C@H]2O)[C@H]1O | 34.1 µM | 20.6 µM | 7.75 µM | 20.2 µM | 24 µM |
| O=c1[nH]cc(F)c(=O)[nH]1 [FLUOROURACIL] |  |  | 1.5 µM |  |  |
| C[C@H]1O[C@@H](O[C@H]2CC[C@@]3(C)[C@@H](CC[C@]4(C)[C@@H]3C=C[C@]35OC[C@@]6(CCC(C)(C)C[C@H]63)[C@@H](O)C[C@]54C)[C@]2(C)CO)[C@H](O)[C@@H](O[C@@H]2O[C@H](CO)[C@@H](O)[C@H](O)[C@H]2O)[C@H]1O [SAIKOSAPONIN A] | 14.5 µM | 8.34 µM | 13 µM | 14 µM | 19 µM |
